Test [1] has as its target T1, rat TRPV1 heterologously expressed in Chinese hamster ovary (CHO) cells (Rattus norvegicus, UniProt O35433). The test can be described thus: functional 45Ca2+ uptake assay, antagonism of capsaicin. The format is cell-based. The settings on record: 24 and 28 compared to 5b and 5c, respectively.
In test [2] the target is T1, rat TRPV1 heterologously expressed in Chinese hamster ovary (CHO) cells. The test can be described thus: binding competition assay with [3H]RTX. The settings on record: respectively; for increases in binding affinity: 24 and 28 compared to 5b and 5c; for increase in binding affinity: 19 and 20 compared to (R)-5a and (S)-5a.

T1 sequence (O35433 whole entry): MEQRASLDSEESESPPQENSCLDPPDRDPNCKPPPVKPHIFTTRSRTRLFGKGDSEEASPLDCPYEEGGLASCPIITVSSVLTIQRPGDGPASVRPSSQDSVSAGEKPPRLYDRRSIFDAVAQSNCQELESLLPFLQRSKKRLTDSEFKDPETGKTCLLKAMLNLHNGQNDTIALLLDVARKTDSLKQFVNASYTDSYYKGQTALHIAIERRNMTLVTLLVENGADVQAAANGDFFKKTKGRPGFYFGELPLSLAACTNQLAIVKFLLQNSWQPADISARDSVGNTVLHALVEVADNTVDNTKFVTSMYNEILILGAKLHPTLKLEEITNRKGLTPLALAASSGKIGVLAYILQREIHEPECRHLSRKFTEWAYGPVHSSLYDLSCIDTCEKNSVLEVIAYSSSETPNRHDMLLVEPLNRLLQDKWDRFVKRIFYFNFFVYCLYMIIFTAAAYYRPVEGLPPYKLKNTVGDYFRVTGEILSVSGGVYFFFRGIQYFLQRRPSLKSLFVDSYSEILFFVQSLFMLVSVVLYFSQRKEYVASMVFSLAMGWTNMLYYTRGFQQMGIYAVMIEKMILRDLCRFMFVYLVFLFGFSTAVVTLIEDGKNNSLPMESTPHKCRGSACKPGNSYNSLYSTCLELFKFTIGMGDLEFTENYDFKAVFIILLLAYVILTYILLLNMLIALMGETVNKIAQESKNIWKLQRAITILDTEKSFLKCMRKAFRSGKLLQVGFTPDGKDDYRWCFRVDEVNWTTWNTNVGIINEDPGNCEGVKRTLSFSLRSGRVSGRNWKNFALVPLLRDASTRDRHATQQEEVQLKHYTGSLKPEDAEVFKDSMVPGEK

`C[C@@H](NC(=S)NCC(COC(=O)C(C)(C)C)Cc1ccc(C(C)(C)C)cc1)c1ccc(NS(C)(=O)=O)cc1` (stereo partly drawn) [compound 28] registered an increases in antagonism in test [1] of 4 fold. Also, in test [2], the “increases in binding affinity” value came out at 6 fold.

In turn, `Cc1ccc(CC(CNC(=S)N[C@H](C)c2ccc(NS(C)(=O)=O)cc2)COC(=O)C(C)(C)C)cc1C` (stereo partly drawn) [compound 24] came in with an increases in antagonism in test [1] of 10 fold. Besides, the “increases in binding affinity” value in test [2] was 5 fold.

Regarding `C[C@@H](NC(=S)NC[C@H](COC(=O)C(C)(C)C)Cc1ccccc1)c1ccc(NS(C)(=O)=O)cc1` [compound 19], the “increase in binding affinity” value in test [2] is about 10 fold.

In the case of `C[C@@H](NC(=S)NC[C@@H](COC(=O)C(C)(C)C)Cc1ccccc1)c1ccc(NS(C)(=O)=O)cc1` [compound 20], in test [2], the “increase in binding affinity” value is given as about 10 fold.

The record behind these values is PMC6957243 (Bioorganic & medicinal chemistry letters, 2014).
